# Laboratory results as given in patent publication US10689425B2, “Collagen-binding synthetic peptidoglycans, preparation, and methods of use” (Purdue Research Foundation, priority 2008, dated 2020).
# Experiments:
# [1] = tested on: Human coronary artery smooth muscle cells (HCA SMC); experiment: Gel compaction by cells seeded in collagen gels; format: cell-based; conditions: Day 7
# Method: Human coronary artery smooth muscle cells (HCA SMC) (Cascade Biologics) were cultured in growth medium (Medium 231 supplemented with smooth muscle growth factor). Cells from passage 3 were used for all experiments. Differentiation medium (Medium 231 supplemented with 1% FBS and 1× pen/strep) was used for all experiments unless otherwise noted.
# Collagen gels were prepared with each additive as described with the exception that the 1×PBS example addition was omitted to accommodate the addition of cells in media. After incubating on ice for 30 min, HCA SMCs in differentiation medium were added to the gel solutions to a final concentration of 1×10^6 cells/mL. Gels were formed in quadruplicate in 48-well non-tissue culture treated plates (Costar) for 6 hrs before adding 500 μL/well differentiation medium. Gels were freed from the well edges after 24 hrs. Medium was changed every 2-3 days and images for compaction were taken at the same time points using a Gel Doc System (Bio-Rad). The cross-sectional area of circular gels correlating to degree of compaction was determined using ImageJ software (NIH). Gels containing no cells were used as a negative control and cells in collagen gels absent additive were used as a positive control. By day 10 all gels had compacted to approximately 10% of the original gel area, and differences between additives were small.
# collagen type I gels = biological target: T1, collagen type I gels (Bos taurus, UniProt P02453+P02465); experiment: Viscoelastic characterization of collagen type I gels (rheometer); conditions: 5:1, 10:1 and 30:1 collagen:additive; 0.1-1.0 Hz, 1.0 Pa
# T1 construct: purchased Inamed, Freemont, Calif; (Nutragen)
# T1 sequence (P02453 162-1217 limits assumed): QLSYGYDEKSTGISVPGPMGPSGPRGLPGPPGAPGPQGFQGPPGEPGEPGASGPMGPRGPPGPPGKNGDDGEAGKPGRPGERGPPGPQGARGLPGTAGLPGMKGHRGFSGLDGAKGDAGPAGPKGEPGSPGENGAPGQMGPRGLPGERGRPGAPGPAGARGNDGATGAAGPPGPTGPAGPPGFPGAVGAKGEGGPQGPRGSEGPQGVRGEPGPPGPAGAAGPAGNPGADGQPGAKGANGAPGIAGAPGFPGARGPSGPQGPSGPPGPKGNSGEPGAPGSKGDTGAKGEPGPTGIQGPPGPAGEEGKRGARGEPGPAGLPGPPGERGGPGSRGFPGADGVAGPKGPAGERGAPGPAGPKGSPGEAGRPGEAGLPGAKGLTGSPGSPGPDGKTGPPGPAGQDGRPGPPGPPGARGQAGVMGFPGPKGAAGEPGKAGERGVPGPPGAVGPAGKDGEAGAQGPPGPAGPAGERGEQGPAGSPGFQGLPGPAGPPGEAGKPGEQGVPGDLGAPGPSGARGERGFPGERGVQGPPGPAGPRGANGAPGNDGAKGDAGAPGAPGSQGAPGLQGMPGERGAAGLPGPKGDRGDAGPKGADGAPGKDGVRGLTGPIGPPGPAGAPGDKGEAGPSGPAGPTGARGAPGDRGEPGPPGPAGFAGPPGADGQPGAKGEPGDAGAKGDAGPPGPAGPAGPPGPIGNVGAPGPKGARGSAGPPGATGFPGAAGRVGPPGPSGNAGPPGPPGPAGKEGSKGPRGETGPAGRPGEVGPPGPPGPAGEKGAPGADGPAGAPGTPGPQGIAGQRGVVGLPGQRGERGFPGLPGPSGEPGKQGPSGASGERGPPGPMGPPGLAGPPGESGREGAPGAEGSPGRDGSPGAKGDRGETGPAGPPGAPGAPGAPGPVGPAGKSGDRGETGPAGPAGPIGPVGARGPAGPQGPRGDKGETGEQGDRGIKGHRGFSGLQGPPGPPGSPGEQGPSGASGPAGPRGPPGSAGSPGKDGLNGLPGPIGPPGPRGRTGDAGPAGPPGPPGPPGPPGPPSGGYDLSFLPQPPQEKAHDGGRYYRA
# T1 sequence (P02465 80-1117 limits assumed): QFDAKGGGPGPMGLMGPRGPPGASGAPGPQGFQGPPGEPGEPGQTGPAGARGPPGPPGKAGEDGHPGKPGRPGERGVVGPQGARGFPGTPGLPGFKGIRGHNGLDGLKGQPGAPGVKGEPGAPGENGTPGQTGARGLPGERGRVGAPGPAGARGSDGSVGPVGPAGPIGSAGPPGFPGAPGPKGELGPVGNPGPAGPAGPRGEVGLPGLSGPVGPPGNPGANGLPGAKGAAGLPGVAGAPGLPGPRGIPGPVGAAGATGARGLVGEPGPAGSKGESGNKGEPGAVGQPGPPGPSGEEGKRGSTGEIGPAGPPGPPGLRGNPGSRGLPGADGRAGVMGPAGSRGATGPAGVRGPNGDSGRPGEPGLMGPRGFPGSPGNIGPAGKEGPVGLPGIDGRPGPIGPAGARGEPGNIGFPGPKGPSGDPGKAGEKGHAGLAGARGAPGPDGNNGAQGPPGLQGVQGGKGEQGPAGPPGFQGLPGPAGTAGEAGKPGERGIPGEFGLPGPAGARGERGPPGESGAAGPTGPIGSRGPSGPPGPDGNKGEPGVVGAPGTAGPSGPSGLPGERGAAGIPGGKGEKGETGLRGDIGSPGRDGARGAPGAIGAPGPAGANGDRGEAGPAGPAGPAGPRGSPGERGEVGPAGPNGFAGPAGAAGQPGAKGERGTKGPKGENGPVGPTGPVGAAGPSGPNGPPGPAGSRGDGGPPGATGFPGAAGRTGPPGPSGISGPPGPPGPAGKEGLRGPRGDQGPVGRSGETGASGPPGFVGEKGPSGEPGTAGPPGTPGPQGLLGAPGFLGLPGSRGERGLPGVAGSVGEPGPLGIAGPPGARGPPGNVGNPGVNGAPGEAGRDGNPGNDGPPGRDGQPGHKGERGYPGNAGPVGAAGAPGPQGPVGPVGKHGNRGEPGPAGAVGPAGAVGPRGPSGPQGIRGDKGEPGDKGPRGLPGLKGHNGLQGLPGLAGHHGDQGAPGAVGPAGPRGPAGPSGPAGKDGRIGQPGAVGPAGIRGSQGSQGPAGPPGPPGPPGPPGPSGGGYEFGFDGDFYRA
# Method: The PTFE printing restricted gels to the 20 mm diameter wettable region. Gels were formed in a humidified incubator at 37° C. overnight prior to mechanical testing. Slides were clamped on the rheometer stage of a AR-G2 rheometer with 20 mm stainless steel parallel plate geometry (TA Instruments, New Castle, Del.), and the 20 mm stainless steel parallel plate geometry was lowered to a gap distance of 600 μm using a normal force control of 0.25N to avoid excessive shearing on the formed gel. An iterative process of stress and frequency sweeps was performed on gels of collagen alone to determine the linear range. All samples were also tested over a frequency range from 0.1 Hz to 1.0 Hz and a controlled stress of 1.0 Pa. Statistical analysis using Design Expert software ([…], Minneapolis, Minn.) was performed at each frequency and a 5-way ANOVA used to compare samples. […] Viscoelastic characterization was performed as described in EXAMPLE 17 on gels formed with varying ratios of collagen to additive (treatment).
# HCA SMCs = experiment: Elastin content by Fastin elastin assay; format: cell-based, Human; conditions: gels cultured for 10 days
# Method: Differentiation medium was changed every three days and gels were cultured for 10 days. […] Gels were rinsed in 1×PBS overnight to remove serum protein, and gels were tested for elastin content using the Fastin elastin assay per manufacturers protocol (Biocolor, County […].). Briefly, gels were solubilized in 0.25 M oxalic acid by incubating at 100° C. for 1 hr. Elastin was precipitated and samples were then centrifuged at 11,000×g for 10 min. The solubilized collagen supernatant was removed and the elastin pellet was stained by Fastin Dye Reagent for 90 min at room temperature. Samples were centrifuged at 11,000×g for 10 min and unbound dye in the supernatant was removed. Dye from the elastin pellets was released by the Fastin Dye Dissociation Reagent, and 100 μL samples were transferred to a 96-well plate (Costar). Absorbance was measured at 513 nm, and elastin content was calculated from an α-elastin standard curve.
substance,measurement,setting,value
dermatan sulfate [DS],"Gel compaction, statistical significance",[1],significant compared to collagen
same,Stiffness of collagen gel (storage modulus G'),collagen type I gels,increase the stiffness of the resulting collagen gel over untreated collagen
same,Elastin production,HCA SMCs,significantly decreased elastin production over untreated collagen
